Source: patent US20200407382A1, “POLYMORPHIC FORMS OF (9-[(R)-2-[[(S)-[[(S)-1-(ISOPROPOXYCARBONYL)ETHYL]AMINO]PHENOXY PHOSPHINYL]METHOXY]PROPYL] ADENINE AND PHARMACEUTICALLY ACCEPTABLE SALTS THEREOF” (CIPLA LIMITED, priority 2017, published 2020)

Experimental: FIG. 10 illustrates a dynamic vapor sorption (DVS) isotherm profile of Form C4 of (9-[(R)-2-[[(S)-[[(S)-1-(isopropoxycarbonyl)ethyl]amino] phenoxyphosphinyl] methoxy]propyl] adenine hemifumarate , according to another embodiment. For the DVS measurement a sample of crystalline Form C4 was cycled through changing humidity conditions to determine its hygroscopicity. The sample was analyzed using a Surface Measurement System DVS-1 Dynamic Vapor Sorption System. About 100 mg of crystalline Form C4 was placed into a mesh vapor sorption balance pan and loaded into a dynamic vapor sorption balance as part of the
Surface Measurement System. Data was collected in 1-minute intervals. Nitrogen was used as the carrier gas. The sampled crystalline Form C4 was subjected to a ramping profile from 0-95% relative humidity (RH) at 5 and 10% increments, maintaining the sample at each step until a stable weight had been achieved (99.5% step completion). After completion of the Sorption cycle, the sample was dried using the same procedure, but all the way down to 95% RH to 30% RH (10% RH interval) and from 30% RH to 5% RH (5% RH interval). The weight change during the Sorption/desorption cycles were plotted, allowing for the hygroscopic nature of the sample to be determined.
• 1. The hygroscopicity was studied at 25° C. using an SMS DVS intrinsic analyser. • 2. About 100 mg of sample was placed in a tared sample holder at an initial ambient room humidity. • 3. A total wet/dry nitrogen flow rate of 270 cc/min was used throughout the study. • 4. Solids were studied by performing one full cycle of the following program: 300 minutes of drying at 25° C. under dry N2, followed by settings of 0, 5, 10, 15, 20, 25, 30, 40, 50, 60, 70, 80, 90 and 95% RH, with exposure time at each humidity set point dependent upon 99.5% confidence in the F1 fit model or 60 minutes. The maximum time allowed at any one humidity set point was 60 minutes. Followed by decreasing 95% RH to 30% RH (10% RH interval) and from 30% RH to 5% RH (5% RH interval). […]. The sample was maintained under dry N2 after the cycle was completed. • 5. Percent weight gain was calculated based on the dry weight basis.

Q: Which results are given for `CC(C)OC(=O)[C@H](C)N[P@](=O)(CO[C@H](C)Cn1cnc2c(N)ncnc21)Oc1ccccc1` [Form C4, (9-[(R)-2-[[(S)-[[(S)-1-(isopropoxycarbonyl)ethyl]amino]phenoxyphosphinyl]methoxy]propyl]adenine hemifumarate]?
A: hygroscopicity (DVS isotherm) (25° C., 0-95% RH sorption/desorption cycles): non-hygroscopic; hysteresis between sorption and desorption cycles (DVS, 0-95% RH): very small hysteresis; change of crystalline form during DVS (XRPD post DVS vs pre-DVS) (XRPD pattern post DVS analysis compared with FIG. 4): no change in the crystalline Form C4; increase in mass during the Sorption cycle (between 0% and 95% RH, 25° C.): about 1.7%
